For one assay, the system named is Zymoseptoria tritici. Briefly: Leaf Blotch of Wheat (SEPTTR) fungicidal activity. It is filed as in vivo. Particulars: wheat leaf blotch; for pest or weed control at 121.5 g/ha: Low Volume application, 121.5 g/H; for pest or weed control at 100 ppm: High Volume application. The procedure:
Example A: Evaluation of Fungicidal Activity: Leaf Blotch of Wheat (Zymoseptoria tritici; Bayer Code […]) Technical grades of materials were dissolved in acetone, which were then mixed with nine volumes of H2O containing 110 ppm Triton X-100. The fungicide solutions were applied onto wheat seedlings using an automated booth sprayer to run-off. All sprayed plants were allowed to air dry prior to further handling. All fungicides were evaluated using the aforementioned method for their activity vs. all target diseases, unless stated otherwise. Wheat leaf blotch and brown rust activity were also evaluated using track spray applications, in which case the fungicides were formulated as EC formulations, containing 0.1% Trycol 5941 in the spray solutions. Wheat plants (variety Yuma) were grown from seed in a greenhouse in 50% mineral soil/50% soil-less Metro mix until the first leaf was fully emerged, with 7-10 seedlings per pot. These plants were inoculated with an aqueous spore suspension of Zymoseptoria tritici either prior to or after fungicide treatments. After inoculation the plants were kept in 100% relative humidity (one day in a dark dew chamber followed by two to three days in a lighted dew chamber at 20° C.) to permit spores to germinate and infect the leaf. The plants were then transferred to a greenhouse set at 20° C. for disease to develop. When disease symptoms were fully expressed on the 1st leaves of untreated plants, infection levels were assessed on a scale of 0 to 100 percent disease severity. Percent disease control was calculated using the ratio of disease severity on treated plants relative to untreated plants.

A further assay concerns Puccinia triticina. Briefly: Wheat Brown Rust (PUCCRT) fungicidal activity. The format is in vivo. Particulars: for pest or weed control at 121.5 g/ha: Low Volume application, 121.5 g/H; for pest or weed control at 100 ppm: High Volume application. The procedure:
Technical grades of materials were dissolved in acetone, which were then mixed with nine volumes of H2O containing 110 ppm Triton X-100. The fungicide solutions were applied onto wheat seedlings using an automated booth sprayer to run-off. All sprayed plants were allowed to air dry prior to further handling. All fungicides were evaluated using the aforementioned method for their activity vs. all target diseases, unless stated otherwise. Wheat leaf blotch and brown rust activity were also evaluated using track spray applications, in which case the fungicides were formulated as EC formulations, containing 0.1% Trycol 5941 in the spray solutions. Wheat plants (variety Yuma) were grown from seed in a greenhouse in 50% mineral soil/50% soil-less Metro mix until the first leaf was fully emerged, with 7-10 seedlings per pot. These plants were inoculated with an aqueous spore suspension of Zymoseptoria tritici either prior to or after fungicide treatments. After inoculation the plants were kept in 100% relative humidity (one day in a dark dew chamber followed by two to three days in a lighted dew chamber at 20° C.) to permit spores to germinate and infect the leaf. The plants were then transferred to a greenhouse set at 20° C. for disease to develop. When disease symptoms were fully expressed on the 1st leaves of untreated plants, infection levels were assessed on a scale of 0 to 100 percent disease severity. Percent disease control was calculated using the ratio of disease severity on treated plants relative to untreated plants. Example B: Evaluation of Fungicidal Activity: Wheat Brown Rust (Puccinia triticina; Bayer Code PUCCRT) Wheat plants (variety Yuma) were grown from seed in a greenhouse in 50% mineral soil/50% soil-less Metro mix until the first leaf was fully emerged, with 7-10 seedlings per pot. These plants were inoculated with an aqueous spore suspension of Puccinia triticina either prior to or after fungicide treatments. After inoculation the plants were kept in a dark dew room at 22° C. with 100% relative humidity overnight to permit spores to germinate and infect the leaf. The plants were then transferred to a greenhouse set at 24° C. for disease to develop. Fungicide formulation, application and disease assessment followed the procedures as described in the Example A.

[1] abbreviates: 24 h, 1 day protectant, read-out: SEPTTR disease control, 1DP (1 Day Protectant).
Where [2] appears, read: 72 h, 3 day curative, read-out: SEPTTR disease control, 3DC (3 Day Curative).
The mark [3] stands for this setting: 24 h, 1 day protectant, read-out: PUCCRT disease control, 1DP (1 Day Protectant).
[4] abbreviates: 72 h, 3 day curative, read-out: PUCCRT disease control, 3DC (3 Day Curative).

SMILES strings stand for the structures. Where two headings read alike, the source gives them in different places.

In the case of `COc1ccnc(C(=O)N[C@H]2CCCC[C@@H]3OC(C)(C)O[C@H]3[C@H](C)OC2=O)c1OCOC(C)=O` [Compound 33], the pest or weed control at 121.5 g/ha was less than 80% in the assay with Zymoseptoria tritici (setting [1]), greater than 80% in the assay on Zymoseptoria tritici (setting [2]), greater than 80% with Puccinia triticina (setting [3]) and greater than 80% in the assay on Puccinia triticina (setting [4]).

On to `COc1ccnc(C(=O)N[C@H]2CCCC[C@H](OCC(C)C)[C@@H](OCC(C)C)[C@H](C)OC2=O)c1O` [Compound 89], for which the pest or weed control at 100 ppm in the assay with Zymoseptoria tritici (setting [1]), in the assay with Zymoseptoria tritici (setting [2]) and in the assay with Puccinia triticina (setting [3]) was less than 80% in each case.

As for `COc1ccnc(C(=O)N[C@H]2CCOC[C@H](OCC(C)C)[C@@H](OCC(C)C)[C@H](C)OC2=O)c1O` [Compound 116], the pest or weed control at 100 ppm in the assay with Zymoseptoria tritici (setting [2]), in the assay on Puccinia triticina (setting [3]) and with Puccinia triticina (setting [4]) was less than 80% throughout.

Turning to `COc1ccnc(C(=O)N[C@H]2CCCC[C@H](Cc3ccccc3)[C@@H](OCC(C)C)[C@H](C)OC2=O)c1O` [Compound 102], the values for the pest or weed control at 100 ppm in the assay on Zymoseptoria tritici (setting [1]), in the assay with Puccinia triticina (setting [3]) and in the assay on Puccinia triticina (setting [4]) were greater than 80%, greater than 80% and less than 80%, respectively.

Turning to `COc1ccnc(C(=O)N[C@H]2COCC[C@H](Cc3ccc(F)cc3)[C@@H](OC(=O)C(C)C)[C@H](C)OC2=O)c1OCOC(C)=O` [Compound 76], the pest or weed control at 121.5 g/ha with Zymoseptoria tritici (setting [1]), in the assay on Zymoseptoria tritici (setting [2]), in the assay with Puccinia triticina (setting [3]) and in the assay with Puccinia triticina (setting [4]) was greater than 80% throughout.

As to `CCCCO[C@H]1CCOC[C@H](NC(=O)c2nccc(OC)c2O)C(=O)O[C@@H](C)[C@@H]1OCC(C)C` [Compound 87], the pest or weed control at 100 ppm in the assay on Zymoseptoria tritici (setting [1]) is greater than 80%; with Zymoseptoria tritici (setting [2]), less than 80%; with Puccinia triticina (setting [3]), greater than 80%; with Puccinia triticina (setting [4]), greater than 80%.

On to `CCCCO[C@H]1CCOC[C@H](NC(=O)c2nccc(OC)c2O)C(=O)O[C@@H](C)[C@@H]1OCc1ccccc1` [Compound 82], for which the pest or weed control at 100 ppm with Zymoseptoria tritici (setting [1]) was less than 80%; in the assay with Zymoseptoria tritici (setting [2]), greater than 80%; in the assay on Puccinia triticina (setting [3]), greater than 80%; in the assay with Puccinia triticina (setting [4]), greater than 80%.

For `COc1ccnc(C(=O)N[C@H]2CCCC[C@H](CC3CCCC3)[C@@H](OC(=O)C(C)C)[C@H](C)OC2=O)c1OC(C)=O` [Compound 56, (2S,3R,4R,9S)-9-(3-acetoxy-4-methoxypicolinamido)-4-(cyclopentylmethyl)-2-methyl-10-oxooxecan-3-yl isobutyrate], the pest or weed control at 121.5 g/ha in the assay with Zymoseptoria tritici (setting [1]) was greater than 80%; with Zymoseptoria tritici (setting [2]), less than 80%; with Puccinia triticina (setting [3]), greater than 80%; in the assay on Puccinia triticina (setting [4]), less than 80%.

With `COc1ccnc(C(=O)N[C@H]2CCCC[C@H](CC3CCCC3)[C@@H](Oc3ccccc3)[C@H](C)OC2=O)c1OCOC(C)=O` [Compound 50], the pest or weed control at 121.5 g/ha is greater than 80% in the assay with Zymoseptoria tritici (setting [1]), less than 80% in the assay on Zymoseptoria tritici (setting [2]), greater than 80% in the assay with Puccinia triticina (setting [3]) and greater than 80% in the assay on Puccinia triticina (setting [4]).

With `COc1ccnc(C(=O)N[C@H]2CCCC[C@H](Oc3ccccc3)[C@@H](OCC(C)C)[C@H](C)OC2=O)c1O` [Compound 90], the pest or weed control at 100 ppm was greater than 80% in the assay on Zymoseptoria tritici (setting [1]), less than 80% in the assay with Zymoseptoria tritici (setting [2]), greater than 80% with Puccinia triticina (setting [3]) and less than 80% in the assay on Puccinia triticina (setting [4]).

On to `CC[C@H]1CCOC[C@H](NC(=O)c2nccc(OC)c2O)C(=O)O[C@@H](C)[C@@H]1OC(=O)C1CC1` [Compound 136], for which the pest or weed control at 100 ppm with Zymoseptoria tritici (setting [2]) is less than 80%; with Puccinia triticina (setting [3]), greater than 80%; in the assay with Puccinia triticina (setting [4]), greater than 80%.

As for `CCCO[C@H]1CCCC[C@H](NC(=O)c2nccc(OC)c2OCOC(C)=O)C(=O)O[C@@H](C)[C@@H]1Oc1ccccc1` [Compound 23], the pest or weed control at 121.5 g/ha in the assay with Zymoseptoria tritici (setting [1]), in the assay on Zymoseptoria tritici (setting [2]), in the assay on Puccinia triticina (setting [3]) and in the assay on Puccinia triticina (setting [4]) was greater than 80% each time.

Turning to `C=CCO[C@@H]1[C@@H](CC2CCCC2)CCCC[C@H](NC(=O)c2nccc(OC)c2OCOC(C)=O)C(=O)O[C@H]1C` [Compound 53], the pest or weed control at 121.5 g/ha in the assay with Zymoseptoria tritici (setting [2]) and in the assay with Puccinia triticina (setting [3]) was less than 80% each time.

Regarding `COc1ccnc(C(=O)N[C@H]2CCOC[C@H](OC)[C@@H](Oc3ccccc3)[C@H](C)OC2=O)c1OCOC(C)=O` [Compound 40], the pest or weed control at 121.5 g/ha with Zymoseptoria tritici (setting [1]), with Zymoseptoria tritici (setting [2]), in the assay with Puccinia triticina (setting [3]) and in the assay on Puccinia triticina (setting [4]) was greater than 80% throughout.

Turning to `CC[C@H]1CCOC[C@H](NC(=O)c2nccc(OC)c2OCOC(C)=O)C(=O)O[C@@H](C)[C@@H]1OCC(C)C` [Compound 70], the pest or weed control at 121.5 g/ha in the assay with Zymoseptoria tritici (setting [1]) is greater than 80%; in the assay with Zymoseptoria tritici (setting [2]) it was less than 80%; with Puccinia triticina (setting [3]) it was greater than 80%; with Puccinia triticina (setting [4]), greater than 80%.

Turning to `COc1ccnc(C(=O)N[C@H]2CCCC[C@H](Oc3ccccc3)[C@@H](OCC(C)C)[C@H](C)OC2=O)c1OCOC(C)=O` [Compound 10], the pest or weed control at 100 ppm in the assay on Zymoseptoria tritici (setting [1]), in the assay with Zymoseptoria tritici (setting [2]), in the assay with Puccinia triticina (setting [3]) and in the assay on Puccinia triticina (setting [4]) was greater than 80% in each case.

In the case of `CC[C@H]1CCOC[C@H](NC(=O)c2nccc(OC)c2O)C(=O)O[C@@H](C)[C@@H]1OC(=O)c1ccccc1` [Compound 135], the pest or weed control at 100 ppm in the assay with Zymoseptoria tritici (setting [1]), with Zymoseptoria tritici (setting [2]), with Puccinia triticina (setting [3]) and in the assay on Puccinia triticina (setting [4]) was greater than 80% throughout.

As for `COc1ccnc(C(=O)N[C@H]2COCC[C@H](Cc3ccc(F)cc3)[C@@H](OCC3CC3)[C@H](C)OC2=O)c1O` [Compound 133], the pest or weed control at 100 ppm with Zymoseptoria tritici (setting [1]) was less than 80%; with Zymoseptoria tritici (setting [2]), less than 80%; in the assay on Puccinia triticina (setting [3]) it was greater than 80%; with Puccinia triticina (setting [4]), greater than 80%.

On to `COc1ccc(CO[C@H]2[C@H](C)OC(=O)[C@@H](NC(=O)c3nccc(OC)c3O)CCOC[C@@H]2OCc2ccc(OC)cc2)cc1` [Compound 106], for which the pest or weed control at 100 ppm with Zymoseptoria tritici (setting [1]) was greater than 80%; in the assay on Zymoseptoria tritici (setting [2]), less than 80%; in the assay with Puccinia triticina (setting [3]), greater than 80%.

Take `COc1ccnc(C(=O)N[C@H]2CCOC[C@H](Oc3ccccc3)[C@@H](Oc3ccccc3)[C@H](C)OC2=O)c1OC(C)=O` [Compound 47]: the pest or weed control at 121.5 g/ha with Zymoseptoria tritici (setting [1]), with Zymoseptoria tritici (setting [2]), in the assay on Puccinia triticina (setting [3]) and in the assay with Puccinia triticina (setting [4]) was greater than 80% each time.

Consider `COc1ccnc(C(=O)N[C@H]2CCCC[C@H](Cc3ccccc3)[C@@H](OC(=O)C(C)C)[C@H](C)OC2=O)c1O` [Compound 127], for which the pest or weed control at 100 ppm in the assay on Zymoseptoria tritici (setting [1]) is greater than 80%; with Zymoseptoria tritici (setting [2]) it was less than 80%; with Puccinia triticina (setting [3]), greater than 80%; with Puccinia triticina (setting [4]), greater than 80%.

Take `COc1ccnc(C(=O)N[C@H]2CCCC[C@H](OC)[C@@H](OC)[C@H](C)OC2=O)c1OC(C)=O` [Compound 27]: the figures for the pest or weed control at 121.5 g/ha in the assay on Zymoseptoria tritici (setting [1]), in the assay with Puccinia triticina (setting [3]) and in the assay with Puccinia triticina (setting [4]) were less than 80%, greater than 80% and greater than 80%, respectively.
